Source: the supplement of paper PMC10307832

What was measured:
Test in all cases: relative viability (nuclei count vs DMSO), 5 days (fraction); higher = more cells survive
LU99A = tested on: LU99A
Outline: (§1)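 One day after seeding in 1536-well plates, lung cancer cell lines were dosed by pin tool. Dosing was either single-drug or a fixed anchor-drug dose plus five library-drug doses (not always all listed) in √10 steps. After 5 days, nuclei were stained in one fix-and-stain step and counted on 4× images, and relative viability is the nuclei count of treated wells over that of vehicle wells, given as the median of duplicate plates.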

ABC-1 = tested on: ABC-1
Outline: as §1

LOU-NH91 = tested on: LOU-NH91
Outline: as §1

NCI-H460 = tested on: NCI-H460
Outline: as §1

NCI-H2170 = tested on: NCI-H2170
Outline: as §1

HCC-78 = tested on: HCC-78
Outline: as §1

PC-3 [JPC-3] = tested on: PC-3 [JPC-3]
Outline: as §1

NCI-H1755 = tested on: NCI-H1755
Outline: as §1

UMC-11 = tested on: UMC-11
Outline: as §1

NCI-H3122 = tested on: NCI-H3122
Outline: as §1

NCI-H1944 = tested on: NCI-H1944
Outline: as §1

SMILES: Cc1sc2c(c1C)C(c1ccc(Cl)cc1)=N[C@@H](CC(=O)OC(C)(C)C)c1nnc(C)n1-2 [JQ1] + COc1cccc2cc(-c3nc([C@H]4CC[C@H](C(=O)O)CC4)n4ncnc(N)c34)[nH]c12 [OSI-027] (partner 0.5 µM)
- relative viability (LU99A; first compound 0.04 µM): 0.299
- relative viability (LU99A; first compound 0.1265 µM): 0.268
- relative viability (LU99A; first compound 0.4 µM): 0.316
- relative viability (LU99A; first compound 1.265 µM): 0.234
- relative viability (LU99A; first compound 4 µM): 0.209
- relative viability (ABC-1; first compound 0.04 µM): 0.452
- relative viability (ABC-1; first compound 0.1265 µM): 0.352
- relative viability (ABC-1; first compound 0.4 µM): 0.322
- relative viability (ABC-1; first compound 1.265 µM): 0.187
- relative viability (ABC-1; first compound 4 µM): 0.212
- relative viability (LOU-NH91; first compound 0.04 µM): 0.721
- relative viability (LOU-NH91; first compound 0.1265 µM): 0.674
- relative viability (LOU-NH91; first compound 0.4 µM): 0.564
- relative viability (LOU-NH91; first compound 1.265 µM): 0.537
- relative viability (LOU-NH91; first compound 4 µM): 0.431
- relative viability (NCI-H460; first compound 0.04 µM): 0.594
- relative viability (NCI-H460; first compound 0.1265 µM): 0.366
- relative viability (NCI-H460; first compound 0.4 µM): 0.259
- relative viability (NCI-H460; first compound 1.265 µM): 0.0873
- relative viability (NCI-H460; first compound 4 µM): 0.0909
- relative viability (NCI-H2170; first compound 0.04 µM): 0.683
- relative viability (NCI-H2170; first compound 0.1265 µM): 0.623
- relative viability (NCI-H2170; first compound 0.4 µM): 0.688
- relative viability (NCI-H2170; first compound 1.265 µM): 0.422
- relative viability (NCI-H2170; first compound 4 µM): 0.362
- relative viability (HCC-78; first compound 0.04 µM): 0.389
- relative viability (HCC-78; first compound 0.1265 µM): 0.47
- relative viability (HCC-78; first compound 0.4 µM): 0.387
- relative viability (HCC-78; first compound 1.265 µM): 0.335
- relative viability (HCC-78; first compound 4 µM): 0.296
- relative viability (PC-3 [JPC-3]; first compound 0.04 µM): 0.771
- relative viability (PC-3 [JPC-3]; first compound 0.1265 µM): 0.823
- relative viability (PC-3 [JPC-3]; first compound 0.4 µM): 0.739
- relative viability (PC-3 [JPC-3]; first compound 1.265 µM): 0.653
- relative viability (PC-3 [JPC-3]; first compound 4 µM): 0.445
- relative viability (NCI-H1755; first compound 0.04 µM): 0.758
- relative viability (NCI-H1755; first compound 0.1265 µM): 0.68
- relative viability (NCI-H1755; first compound 0.4 µM): 0.668
- relative viability (NCI-H1755; first compound 1.265 µM): 0.527
- relative viability (NCI-H1755; first compound 4 µM): 0.39
- relative viability (UMC-11; first compound 0.04 µM): 0.396
- relative viability (UMC-11; first compound 0.1265 µM): 0.399
- relative viability (UMC-11; first compound 0.4 µM): 0.258
- relative viability (UMC-11; first compound 1.265 µM): 0.192
- relative viability (UMC-11; first compound 4 µM): 0.182
- relative viability (NCI-H3122; first compound 0.04 µM): 0.898
- relative viability (NCI-H3122; first compound 0.4 µM): 0.784
- relative viability (NCI-H3122; first compound 1.265 µM): 0.392
- relative viability (NCI-H3122; first compound 4 µM): 0.264
- relative viability (NCI-H1944; first compound 0.04 µM): 0.39
- relative viability (NCI-H1944; first compound 0.1265 µM): 0.364
- relative viability (NCI-H1944; first compound 0.4 µM): 0.375
- relative viability (NCI-H1944; first compound 1.265 µM): 0.227
- relative viability (NCI-H1944; first compound 4 µM): 0.25
